In patent US6734139B1, “N-aryl-uracile-based herbicides” (priority 1999, dated 2004):

Key:
Assay type in all cases: in vivo
maize = experiment: Pre-emergence test in maize (crop plant compatibility); details: for Average damage (%): maize, pre-emergence, 0.1% Renex-36
Description: (§1) Solvent: 2 to 3 parts by weight of acetone or N,N-dimethyl-formamide
(§2) Emulsifier: 1 part by weight of alkylaryl polyglycol ether
(§3) To produce a suitable preparation of active compound, 1 part by weight of active compound is mixed with the stated amount of solvent, the stated amount of emulsifier is added and the concentrate is diluted with water to the desired concentration. Formulated products are dissolved in water and then diluted with water to the desired concentration.
(§4) The solutions of the other mixing components (active compounds or safeners) are prepared analogously. The separately prepared solutions of the various mixing components are then combined and, if appropriate, additional substances (formulation auxiliaries, additives, etc.) are added and, if appropriate, water is added to prepare the desired dilution.
(§5) Seeds of the test plants are sown in standard soil. After 24 hours, the soil is sprayed with the preparation of active compound such that the particular amount of active compound desired in each case is applied per unit area. The concentration of active compound in the spray liquor is chosen such that the particular amount of active compound desired in each case is applied in 500 litres of water per hectare. The containers with the test plants are kept in a greenhouse at controlled temperature and controlled illumination until evaluation.
(§6) 0%=no effect/no damage (like untreated control)

Veronica = experiment: Post-emergence test (herbicidal action, Colby): Veronica
Source text: (§7) The expected action for a given combination of two herbicides can be calculated as follows (cf. COLBY, S. R.: “Calculating synergistic and antagonistic responses of herbicide combinations”, Weeds 15, Pages 20-22, 1967):
(§8) If the actual damage exceeds the calculated value, the combination has a superadditive effect, that is to say a synergistic effect.
as §3, §4
(§9) After three weeks, the degree of damage to the plants is rated in % damage in comparison to the development of the untreated control. The figures denote
as §6

Solanum = experiment: Post-emergence test (herbicidal action, Colby): Solanum
Source text: as §7, §8, §3, §4, §9, §6

weeds = experiment: Pre-emergence test (herbicidal action against weeds, Colby)
Source text: as §7, §8
The theoretically expected activity for a given combination of three herbicides can likewise be found in the literature mentioned above.
as §1, §2, §3, §4, §5, §9, §6

[1] = single active compound at 4 g of a.i./ha

CCS(=O)(=O)N(C(=O)C(C)(C)C)c1cc(-n2c(=O)cc(C(F)(F)F)n(C)c2=O)c(F)cc1C#N [I-3, N-[2-cyano-4-fluoro-5-(3-methyl-2,6-dioxo-4-trifluoromethyl-3,6-dihydro-1(2H)-pyrimidinyl)-phenyl]-N-(2,2-dimethyl-propanoyl)-1-ethanesulphonamide]
Maize (7 days) (maize; Table A28, 60 g of a.i./ha): 10%
Maize (12 days) (maize; Table A28, 60 g of a.i./ha): 20%
Maize (21 days) (maize; Table A28, 60 g of a.i./ha): 17%
Maize (7 days) (maize; Table A28, 90 g of a.i./ha): 20%
Maize (21 days) (maize; Table A28, 90 g of a.i./ha): 36%
Maize (12 days) (maize; Table A29, 60 g of a.i./ha): 20%
Maize (12 days) (maize; Table A29, 90 g of a.i./ha): 30%
Maize (21 days) (maize; Table A29, 90 g of a.i./ha): 36%
Maize (7 days) (maize; Table A31, 90 g of a.i./ha): 20%
Maize (12 days) (maize; Table A31, 90 g of a.i./ha): 30%
Maize (21 days) (maize; Table A31, 90 g of a.i./ha): 29%
Average damage (%) (maize; active compound 1 alone at 60 g of a.i./ha): 17%
Average damage (%) (maize; active compound 1 alone at 90 g of a.i./ha): 36%
Veronica (Veronica; 4 g of a.i./ha): 0%
Veronica (Veronica; 8 g of a.i./ha): 70%
damage, Veronica (Veronica; [1]): 0%
damage, Veronica (Veronica; single active compound at 8 g of a.i./ha): 70%
Solanum (Solanum; 4 g of a.i./ha): 30%
damage, Solanum (Solanum; [1]): 30%
Chenopodium (pre-emergence test) (weeds; Table 23, 4 g of a.i./ha): 80
Galium (pre-emergence test) (weeds; Table 23, 4 g of a.i./ha): 0
Lolium (pre-emergence test) (weeds; Table 23, 4 g of a.i./ha): 0
Setaria (pre-emergence test) (weeds; Table 23, 4 g of a.i./ha): 0
Eriochloa (pre-emergence test) (weeds; Table 23, 8 g of a.i./ha): 50
Ipomoea (pre-emergence test) (weeds; Table 23, 8 g of a.i./ha): 30
Setaria (pre-emergence test) (weeds; Table 23, 8 g of a.i./ha): 0
Chenopodium (pre-emergence test) (weeds; Table A20, 4 g of a.i./ha): 80
Datura (pre-emergence test) (weeds; Table A20, 4 g of a.i./ha): 0
Ipomoea (pre-emergence test) (weeds; Table A20, 4 g of a.i./ha): 30
Lolium (pre-emergence test) (weeds; Table A20, 4 g of a.i./ha): 0
Datura (pre-emergence test) (weeds; Table A20, 8 g of a.i./ha): 30
Galium (pre-emergence test) (weeds; Table A20, 8 g of a.i./ha): 20
Ipomoea (pre-emergence test) (weeds; Table A20, 8 g of a.i./ha): 30
Chenopodium (pre-emergence test) (weeds; Table A21, 4 g of a.i./ha): 80
Datura (pre-emergence test) (weeds; Table A21, 4 g of a.i./ha): 0
Polygonum (pre-emergence test) (weeds; Table A21, 4 g of a.i./ha): 40
Ipomoea (pre-emergence test) (weeds; Table A21, 8 g of a.i./ha): 30
Polygonum (pre-emergence test) (weeds; Table A21, 8 g of a.i./ha): 90
Datura (pre-emergence test) (weeds; Table A22, 4 g of a.i./ha): 0
Polygonum (pre-emergence test) (weeds; Table A22, 4 g of a.i./ha): 40
Cassia (pre-emergence test) (weeds; Table A22, 8 g of a.i./ha): 50
Cassia (pre-emergence test) (weeds; Table A24, 4 g of a.i./ha): 0
Echinochloa (pre-emergence test) (weeds; Table A24, 4 g of a.i./ha): 30
Lolium (pre-emergence test) (weeds; Table A24, 4 g of a.i./ha): 0
Veronica (pre-emergence test) (weeds; Table A24, 4 g of a.i./ha): 30
Echinochloa (pre-emergence test) (weeds; Table A24, 8 g of a.i./ha): 30
Setaria (pre-emergence test) (weeds; Table A24, 8 g of a.i./ha): 30
Bromus (pre-emergence test) (weeds; Table A25, 4 g of a.i./ha): 0
Avena (pre-emergence test) (weeds; Table A25, 8 g of a.i./ha): 40
